The results in this text go back to ChEMBL document CHEMBL5523667, “Blood-stage antimalarial activity, favourable metabolic stability and in vivo toxicity of novel piperazine linked 7-chloroquinoline-triazole conjugates” (Eur J Med Chem, 2024).

Each structure is given as a SMILES string. Calls of active or inactive are those of the source. The rule behind the calls is not given here.

One data set deals with Hemozoin. The data set is described as follows: Inhibition of beta-hematin formation in Plasmodium falciparum by UV-visible SpectraMax P340 plate reader analysis.
The subject of data set [1] is Plasmodium falciparum. The data set is described as follows: Antimalarial activity against chloroquine-sensitive Plasmodium falciparum NF54 assessed as inhibition of parasite growth by lactate dehydrogenase assay. The class given is functional, organism-based.
The test system of data set [2] is Plasmodium falciparum. The data set is described as follows: Antimalarial activity against chloroquine-sensitive Plasmodium falciparum 3D7 assessed as growth inhibition at 1 to 2 uM. The class given is functional, organism-based. Particulars: dose 1-2 µM.
Data set [3] has as its system Plasmodium falciparum. The data set is described as follows: Antimalarial activity against schizont stage Plasmodium falciparum infected in erythrocytes assessed as reduction in proteolytic activity at 5 uM pre-incubated for 1 hr followed by Z-Phe-Arg-AMC addition and measured after 5 to 10 mins by confocal microscopic analysis relative to control. The class given is functional, Erythrocyte. Details: scale not given: the % may be the effect or the level left. Particulars: time 65-70 min.

The next data set addresses T1, Falcipain 2 (Plasmodium falciparum, UniProt Q9N6S8).
T1 sequence (Q9N6S8 whole entry): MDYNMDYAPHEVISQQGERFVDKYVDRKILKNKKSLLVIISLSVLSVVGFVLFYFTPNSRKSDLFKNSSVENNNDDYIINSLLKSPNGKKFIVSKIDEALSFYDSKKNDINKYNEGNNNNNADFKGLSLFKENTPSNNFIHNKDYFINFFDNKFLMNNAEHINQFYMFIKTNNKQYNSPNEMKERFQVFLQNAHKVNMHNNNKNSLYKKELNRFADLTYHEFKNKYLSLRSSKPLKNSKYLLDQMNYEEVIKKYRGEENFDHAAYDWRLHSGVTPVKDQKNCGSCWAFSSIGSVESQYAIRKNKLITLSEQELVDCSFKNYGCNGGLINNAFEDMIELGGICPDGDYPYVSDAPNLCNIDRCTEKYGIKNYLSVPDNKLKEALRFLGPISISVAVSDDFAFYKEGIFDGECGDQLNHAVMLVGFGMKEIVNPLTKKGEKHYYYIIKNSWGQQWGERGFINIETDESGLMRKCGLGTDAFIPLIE
The data set is described as follows: Binding affinity to N-terminal 6His-tagged recombinant Plasmodium falciparum FP2 expressed in Escherichia coli M15 assessed as dissociation constant incubated for 15 mins in presence of lysine reactive dye by microscale thermophoretic analysis. Background: MST reads how a fluorescent partner responds to local heating, with and without ligand.

Data set [4] deals with Plasmodium falciparum. The data set is described as follows: Antimalarial activity against chloroquine-resistant Plasmodium falciparum K1 assessed as inhibition of parasite growth by lactate dehydrogenase assay. The class given is functional, organism-based.
A short description of data set [5]: Selectivity index, ratio of IC50 for cytotoxicity against CHO cells to IC50 for antimalarial activity against chloroquine-sensitive Plasmodium falciparum NF54. In kind it is toxicity, cell-based. The conditions noted are these: hamster, CHO cells versus Plasmodium falciparum NF54; read-out: Ratio IC50.
A short description of data set [6]: Cytotoxicity against CHO cells assessed as reduction in cell viability by MTT assay. In kind it is toxicity, cell-based. Particulars: Chinese hamster (Cricetulus griseus). A general note: Formazan colour is commonly taken as a measure of viable cells.
For data set [7], the system named is Plasmodium falciparum. The data set is described as follows: Resistance index, ratio of IC50 for antimalarial activity against chloroquine-resistant Plasmodium falciparum K1 to IC50 for antimalarial activity against chloroquine-sensitive Plasmodium falciparum NF54. The class given is functional.
Data set [8] concerns Plasmodium falciparum. The data set is described as follows: Antimalarial activity against synchronized ring stage Plasmodium falciparum assessed as reduction in hemozoin level at 25 to 100 nM incubated for 20 hrs by absorbance based analysis. Particulars: dose 25-100 nM. In kind it is functional, organism-based.
Data set [9] relates to Plasmodium falciparum. Put plainly: Antimalarial activity against synchronized ring stage Plasmodium falciparum assessed as accumulation of free heme at 25 to 100 nM incubated for 20 hrs by absorbance based analysis. In kind it is functional, organism-based. The conditions noted are these: dose 25-100 nM.
In data set [10] the test system is Plasmodium falciparum. Put plainly: Antimalarial activity against chloroquine-sensitive Plasmodium falciparum 3D7 assessed as growth inhibition at 1 uM relative to control. The class given is functional. Details: scale not given: the % may be the effect or the level left.
The test system of data set [11] is Plasmodium falciparum. Put plainly: Antimalarial activity against chloroquine-sensitive Plasmodium falciparum 3D7 assessed as growth inhibition at 1 uM. In kind it is functional, organism-based.

A word on the IC50: it is the concentration that gives 50% inhibition. Take `O=C(Cn1cc(CN2CCN(c3ccnc4cc(Cl)ccc34)CC2)nn1)Nc1ccccc1F`: the IC50 with Hemozoin stood at 21.3 µM; in the data set with Plasmodium falciparum [1] it was 3.16 µM.
Take `O=C(Cn1cc(CN2CCN(c3ccnc4cc(Cl)ccc34)CC2)nn1)Nc1ccc(Br)cc1`: the IC50 in the data set on Hemozoin is 19.4 µM; with Plasmodium falciparum [1], 6.45 µM.
On to `Clc1ccc2c(N3CCN(Cc4cn(-c5ccnc6ccccc56)nn4)CC3)ccnc2c1`, for which the result with Plasmodium falciparum [2] was Active.
On the same count and under the same terms, under `Clc1ccc2c(N3CCN(Cc4cn(-c5ccnc6cc(Cl)ccc56)nn4)CC3)ccnc2c1` stands “Active”; under `CCOC(=O)CNC(=O)Cn1cc(CN2CCN(c3ccnc4cc(Cl)ccc34)CC2)nn1`, “Active”.
Regarding `COC(=O)[C@H](Cc1ccccc1)NC(=O)Cn1cc(CN2CCN(c3ccnc4cc(Cl)ccc34)CC2)nn1`, the outcome in the data set on Plasmodium falciparum [2] was Active.
Consider `Cc1ccccc1NC(=O)Cn1cc(CN2CCN(c3ccnc4cc(Cl)ccc34)CC2)nn1`, for which the IC50 in the data set on Hemozoin amounted to 17.4 µM; in the data set on Plasmodium falciparum [1], 4.17 µM.
Broadly, the Kd is a measure of binding affinity in units of concentration. For the compound `CC(C)C[C@H](NC(=O)[C@H]1O[C@@H]1C(=O)O)C(=O)NCCCCN=C(N)N` [E-64], the Activity in the data set with Plasmodium falciparum [3] was 100%. The Kd at Falcipain 2 came to 1.18 µM.
In the case of `O=C(Cn1cc(CN2CCN(c3ccnc4cc(Cl)ccc34)CC2)nn1)Nc1cccc(F)c1`, the IC50 was determined as 2.92 µM in the data set with Plasmodium falciparum [4], 10.6 µM in the data set on Hemozoin, 1.69 µM with Plasmodium falciparum [1] and 146 µM in data set [6]. Besides, the selectivity ratio in [5] came out at 86.5. The “Ratio IC50” value with Plasmodium falciparum [7] came out at 1.7.
As for `O=C(Cn1cc(CN2CCN(c3ccnc4cc(Cl)ccc34)CC2)nn1)Nc1ccccc1Cl`, the IC50 is 5.9 µM in the data set with Plasmodium falciparum [4], 19.2 µM with Hemozoin, 1.79 µM in the data set on Plasmodium falciparum [1] and 126 µM in data set [6]. Also, in [5], the selectivity ratio was determined as 70.3. Moreover, in the data set on Plasmodium falciparum [7], the “Ratio IC50” value came to 3.29.
Regarding `Cc1ccc(NC(=O)Cn2cc(CN3CCN(c4ccnc5cc(Cl)ccc45)CC3)nn2)cc1`, the IC50 in the data set with Plasmodium falciparum [4] was 4.37 µM; with Hemozoin, 18.6 µM; in the data set on Plasmodium falciparum [1], 1.8 µM; in [6], 33.8 µM. The selectivity ratio in data set [5] worked out at 18.8. Further, the “Ratio IC50” value in the data set on Plasmodium falciparum [7] came to 2.4.
As for `COC(=O)[C@H](C)NC(=O)Cn1cc(COc2cccc3ccccc23)nn1`, the outcome in the data set with Plasmodium falciparum [2] was Active.
For `COC(=O)c1ccc(NC(=O)Cn2cc(CN3CCN(c4ccnc5cc(Cl)ccc45)CC3)nn2)cc1`, the IC50 turned out to be 12.7 µM with Hemozoin and 4.14 µM in the data set with Plasmodium falciparum [1].
`CCN(CC)CCCC(C)Nc1ccnc2cc(Cl)ccc12` (configuration not stated) [CHLOROQUINE] showed an IC50 in the data set on Hemozoin of 23.3 µM. Besides, the outcome with Plasmodium falciparum [8] and in the data set on Plasmodium falciparum [9] was Active.
For the compound `O=[N+]([O-])c1cccc(-n2cc(CN3CCN(c4ccnc5cc(Cl)ccc45)CC3)nn2)c1`, the Activity in the data set with Plasmodium falciparum [10] is more than 50%.
Regarding `O=C(Cn1cc(CN2CCN(c3ccnc4cc(Cl)ccc34)CC2)nn1)Nc1ccc(F)cc1`, the IC50 in the data set with Plasmodium falciparum [4] was 3.08 µM; in the data set with Hemozoin, 20.6 µM; in the data set with Plasmodium falciparum [1] it was 1.74 µM; in data set [6] it was 326 µM. In addition, in data set [5], the selectivity ratio was determined as 188. Further, in the data set with Plasmodium falciparum [7], the “Ratio IC50” value came to 1.77.
`O=C(Cn1cc(CN2CCN(c3ccnc4cc(Cl)ccc34)CC2)nn1)Nc1ccccc1[N+](=O)[O-]`: the IC50 is 21.4 µM in the data set with Hemozoin and 2.9 µM in the data set on Plasmodium falciparum [1].
Regarding `Cc1ccccc1-n1cc(CN2CCN(c3ccnc4cc(Cl)ccc34)CC2)nn1`, the Activity with Plasmodium falciparum [10] is reported as more than 50%.
On to `COc1cccc(NC(=O)Cn2cc(CN3CCN(c4ccnc5cc(Cl)ccc45)CC3)nn2)c1`, for which the IC50 in the data set with Hemozoin worked out at 17.4 µM; in the data set on Plasmodium falciparum [1] it was 3.56 µM.
For the compound `Clc1ccc2c(N3CCN(Cc4cn(-c5cccc6ccccc56)nn4)CC3)ccnc2c1`, the outcome in the data set with Plasmodium falciparum [2] was inactive.
Turning to `O=C(Cn1cc(CN2CCN(c3ccnc4cc(Cl)ccc34)CC2)nn1)Nc1ccccc1`, the IC50 with Hemozoin came to 19.8 µM; in the data set with Plasmodium falciparum [1], 4.98 µM.
For `COc1ccc(NC(=O)Cn2cc(CN3CCN(c4ccnc5cc(Cl)ccc45)CC3)nn2)cc1`, the IC50 in the data set on Hemozoin came to 19.7 µM; in the data set on Plasmodium falciparum [1], 6.73 µM.
The like results for `O=C(Cn1cc(CN2CCN(c3ccnc4cc(Cl)ccc34)CC2)nn1)Nc1ccc([N+](=O)[O-])cc1` were, in that order, 28.9 µM and 3.23 µM.
As for `Clc1ccc2c(N3CCN(Cc4cn(-c5ccccc5Cl)nn4)CC3)ccnc2c1`, the Activity in the data set on Plasmodium falciparum [10] is recorded as more than 50%.
As for `O=C(OCc1cn(-c2ccnc3cc(Cl)ccc23)nn1)c1cccc([N+](=O)[O-])c1`, the result in the data set with Plasmodium falciparum [2] was inactive.
Consider `C[C@@H](NC(=O)Cn1cc(CN2CCN(c3ccnc4cc(Cl)ccc34)CC2)nn1)C(=O)O`, for which the result in the data set on Plasmodium falciparum [2] was inactive.
On to `Cc1cccc(NC(=O)Cn2cc(CN3CCN(c4ccnc5cc(Cl)ccc45)CC3)nn2)c1`, for which the IC50 in the data set with Hemozoin was 17.2 µM; with Plasmodium falciparum [1], 3.5 µM.
For the compound `COc1ccccc1NC(=O)Cn1cc(CN2CCN(c3ccnc4cc(Cl)ccc34)CC2)nn1`, the results for the concentration for half-maximal inhibition (IC50) in the data set with Hemozoin and in the data set on Plasmodium falciparum [1] were 14 µM and 3.26 µM, respectively.
As for `COC(=O)[C@H](C)NC(=O)Cn1cc(CN2CCN(c3ccnc4cc(Cl)ccc34)CC2)nn1`, in the data set with Plasmodium falciparum [11], the result was Active.
Take `CCN(CC)Cc1cc(Nc2ccnc3cc(Cl)ccc23)ccc1O` [AMODIAQUINE]: the half-maximal inhibitory concentration (IC50) in the data set on Hemozoin was found to be 10.9 µM.
In the case of `O=C(Cn1cc(CN2CCN(c3ccnc4cc(Cl)ccc34)CC2)nn1)Nc1ccc(Cl)cc1`, the IC50 came to 8.4 µM in the data set on Hemozoin and 4.68 µM in the data set with Plasmodium falciparum [1].
On to `O=C(Cn1cc(CN2CCN(c3ccnc4cc(Cl)ccc34)CC2)nn1)Nc1cccc(Cl)c1`, for which the IC50 is 8.68 µM in the data set with Plasmodium falciparum [4], 15.6 µM in the data set on Hemozoin, 1.83 µM in the data set with Plasmodium falciparum [1] and more than 503 µM in [6]. In addition, the selectivity ratio in data set [5] is more than 275. The “Ratio IC50” value with Plasmodium falciparum [7] worked out at 4.74.
